Data set [1] is described as follows: in vivo. To be noted: male, Swiss Albino, mouse, po, 10 mg/kg.
For data set [2] the following is noted: male, Swiss Albino, mouse, in vivo, 10 mg/kg.

As usually defined, the bioavailability is the share of a dose that reaches the circulation, judged against a reference dose that is usually intravenous. High values mean much systemic uptake, low ones little systemic uptake.

In the case of `CC(C)(C)n1nc(Oc2cccc(Cl)c2)c2c(N)ncnc21` [Compound 2], the bioavailability in data set [1] is 25 to 30%. Further, the “%F (oral availability)” value in data set [2] is on record as 31%.

(Values after article PMC5746462 (Journal of medicinal chemistry, 2017).)
